This is an account of results in patent US6867320B2, “Substituted phenylalkanoic acid derivatives and use thereof” (Asahi Kasei Pharma Corporation, priority 2002, dated 2005).

Assay [1] has as its system zymosan-stimulated footpad edema. The experiment in a line: Mouse zymosan-stimulated footpad edema reaction. In kind it is in vivo. Particulars: ICR female mice, oral 0.1 to 500 mg/kg, compared with positive control group. The protocol: 3. Suppressing Effect on Mouse Zymosan-stimulated Footpad Edema Reaction A suppressing effect on footpad edema caused by zymosan as an inflammatory stimulant was studied by the following method. Groups of ICR female mice (6- to 7-week old) each consisting of eight mice were used for the test. A test compound was suspended or dissolved in purified water containing 0.5% methylcellulose and orally administered to the test animals at 0.1 to 500 mg/0.2 ml/kg. To the control group, purified water containing 0.5% methylcellulose was administered in a similar manner, which was not added with a test compound. One hour after the administration of the test compound, 0.02 ml of a suspension of zymosan suspended in physiological saline (Otsuka Pharmaceutical) at 1 mg/ml was subcutaneously administered to right hind leg footpad of each mouse. One and two hours after the administration of the zymosan suspension, volume of the right hind leg footpad was measured by using an apparatus for measuring a volume of mouse hind leg footpad edema (Unicom). A difference of the volume of footpad measured above and the footpad volume before the administration of the test compound measured beforehand was regarded as a volume of the edema. For the volume of the edema at 1 hour or 2 hours after the zymosan administration, a graph was prepared by indicating time in abscissa and the edema volume in ordinate, and an edema volume AUC (area under the curve) was obtained up to 2 hours by calculation using the following equation. Edema volume AUC (1·hour)=1/2×1×A+1×(A+B)/2 • A: Edema volume 1 hour after zymosan administration • B: Edema volume 2 hour after zymosan administration A suppression ratio on edema of test compound was obtained by calculation using the following equation. Edema suppression ratio (%)=[1−B/A]×100 • A: Edema volume AUC of positive control • B: Edema volume AUC of test compound administered group (2) Measurement Results

In assay [2] the test system is PGE2 production from IL-1β-stimulated MG-63 cells. The assay is described as follows: Suppressing action on PGE2 production from IL-1β-stimulated MG-63 cells. In kind it is cell-based. Particulars: Homo sapiens, IL-1β 1 ng/ml, 18 hours, read-out: PGE2 production suppression ratio. Put shortly: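 PGE2 in 18 h supernatants was quantified by EIA and expressed as % suppression relative to IL-1β-only and unstimulated controls. Cells were the MG-63 osteosarcoma line, plated at 2×10^4/well, given compound in 0.5% FBS EMEM, then 1 ng/ml IL-1β final.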

Assay [3] concerns PGD2 production from IgE-stimulated RBL-2H3 cells. The experiment in a line: Suppressing action on PGD2 production from IgE-stimulated RBL-2H3 cells. In kind it is cell-based. Particulars: Rattus norvegicus, 10 min, IgE/DNP-BSA stimulated RBL-2H3 cells, read-out: PGD2 production suppression ratio. The source says:
(§1) 2. Suppressing Action on PGD2 and LTB4 Production from IgE-Stimulated RBL-2H3 Cells
(§2) Suppressing action on PGD2 and LTB4 production caused by IgE as an allergic stimulant was investigated by the following method. Cells of RBL-2H3, which is a rat mastocytoma cell line (purchased from ATCC), were suspended in DEMEM medium (GIBCO) containing 10% fetal bovine serum (BioFluid), inoculated to each well of 48-well culture plate at a density of 2×10^4 cells/well and cultured overnight. Then, IgE antiserum directed to dinitrophenylated BSA (henceforth DNP-BSA) was further added to each well, and the cells were cultured for 30 minutes. Then, the medium was changed to DEMEM medium containing 0.5% fetal bovine serum, a test compound was added with each well, and DNP-BSA was further added at a final concentration of 100 ng/ml as a stimulant. Ten minutes after the stimulant was added, the culture supernatant was collected, and the PGD2 concentration and LTB4 concentration in the culture supernatant were measured by using EIA kit (CAYMAN). By using a well which was not added with the stimulant as a negative control and a well which was added only with the stimulant as a positive control, suppressing ratios on mediator production were calculated from the production amounts of the mediators in the well added with the test compound using the following equation. PGD2 or LTB4 production suppression ratio=[1−(C−B)/(A−B)]×100 • A: PGD2 or LTB4 production amount of positive control • B: PGD2 or LTB4 production amount of negative control • C: PGD2 or LTB4 production amount in well added with test compound
(§3) Further, as control compounds for comparison, reference compound (1), 3-(2-cyclohexylmethyloxy-1,1′-biphenyl-5-yl)propionic acid described in WO99/19291, reference compounds (2) and (3), [2-(5,6,7,8-tetrahydro-5,5,8,8-tetramethyl-2-naphthalenyl)methyloxy-1,1′-biphenyl-5-yl]carboxylic acid [reference compound (2)] and 3-[3′-carboxy-2-(5,6,7,8-tetrahydro-5,5,8,8-tetramethyl-2naphthalenyl)methyloxy-1,1′-biphenyl-6-yl]propionic acid [reference compound (3)] described in U.S. Pat. No. 5,391,817 and Japanese Patent Unexamined Publication (Kokai) No. 7-22399, respectively, were used, and activities thereof were similarly measured.

Assay [4] has as its system LTB4 production from IgE-stimulated RBL-2H3 cells. The assay is described as follows: Suppressing action on LTB4 production from IgE-stimulated RBL-2H3 cells. In kind it is cell-based. Particulars: Rattus norvegicus, 10 min, IgE/DNP-BSA stimulated RBL-2H3 cells, read-out: LTB4 production suppression ratio.
From the text: as §1, §2, §3

With “3-(3-{6-[(2-aminoacetyl)amino]Naphthalen-2-yl}-4-cyclopentyl-methyloxyphenyl)propionic acid [Compound 078]”, the “suppression of footpad edema caused by zymosan” value (“suppression” below) in assay [1] is recorded as “suppressed footpad edema”. Same read-out and setting: to “3-[4-isopropyloxy-3-(1H-indol-5-yl)phenyl]propionate [Compound 173]” belongs “suppressed footpad edema”.

`O=C(O)CCc1ccc(OCCc2ccccc2F)c(-c2ccc3cc(O)ccc3c2)c1` [Compound 006, 3-{4-[2-(2-fluorophenyl)ethyloxy]-3-(6-hydroxynaphthalen-2-yl)phenyl}propionic acid]: the inhibition at 0.4 µM in assay [2] was at least 50%. For the same compound, the “suppression” value in assay [1] is reported as “suppressed footpad edema”. As for `CNc1ccc2cc(-c3cc(CCC(=O)O)ccc3OCC3CCCC3)ccc2c1` [Compound 016, 3-{4-cyclopentylmethyloxy-3-[6-(N-methylamino)naphthalen-2-yl]phenyl}propionic acid], the inhibition at 0.4 µM in assay [2], in assay [3] and in assay [4] was at least 50% throughout. In the case of `O=C(O)CCc1ccc(OCc2ccccc2F)c(-c2ccc3ccccc3c2)c1` [Compound 031, 3-[4-(2-fluorophenylmethyloxy)-3-(naphthalen-2-yl)phenyl]propionic acid], the inhibition at 0.4 µM in assay [2] is at least 50%. The “suppression” value in assay [1] is “suppressed footpad edema”.

Consider `O=C(O)CCc1ccc(OCc2cccc(F)c2)c(-c2ccc3ccccc3c2)c1` [Compound 035, 3-[4-(3-fluorophenylmethyloxy)-3-(naphthalen-2-yl)phenyl]propionic acid], for which the inhibition at 0.4 µM in assay [3] and in assay [4] was at least 50% each time. For `O=C(O)CCc1ccc(OC2CCCCC2)c(-c2ccc3ccccc3c2)c1` [Compound 045, 3-[4-cyclohexyloxy-3-(naphthalen-2-yl)phenyl]propionic acid], the inhibition at 0.4 µM in assay [2], in assay [3] and in assay [4] was at least 50% each time. Regarding `O=C(O)CCc1ccc(OCC2CCCC2)c(-c2ccc3cc(NCCO)ccc3c2)c1` [Compound 075, 3-{4-cyclopentylmethyloxy-3-[6-(2-hydroxyethylamino)naphthalen-2-yl]phenyl}propionic acid], the inhibition at 0.4 µM in assay [2], in assay [3] and in assay [4] was at least 50% throughout. For the compound `O=C(O)CCc1ccc(OCC2CCCC2)c(-c2ccc3cc(NC(=O)CO)ccc3c2)c1` [Compound 079, 3-(4-cyclopentylmethyloxy-3-{6-[2-(hydroxyacetyl)amino]naphthalen-2-yl}phenyl)propionic acid], the “suppression” value in assay [1] is recorded as “suppressed footpad edema”. Consider `O=C(O)CCc1ccc(OCCc2ccccc2F)c(-c2ccc3[nH]ccc3c2)c1` [Compound 106, 3-{4-[2-(2-fluorophenyl)ethyloxy]-3-(1H-indol-5-yl)phenyl}propionic acid], for which, in assay [2], the inhibition at 0.4 µM was at least 50%. In assay [1], the “suppression” value was “suppressed footpad edema”.

On to `O=C(O)CCc1ccc(OCC2CCCC2)c(-c2cccc3[nH]ccc23)c1` [Compound 114, 3-[4-cyclopentylmethyloxy-3-(1H-indol-4-yl)phenyl]propionic acid], for which the inhibition at 0.4 µM in assay [2] is at least 50%. For the same compound, the “suppression” value in assay [1] is “suppressed footpad edema”. `O=C(O)CCc1ccc(OCc2c(Cl)cccc2Cl)c(-c2ccc3[nH]ccc3c2)c1` [Compound 164, 3-[4-(2,6-dichlorophenylmethyloxy)-3-(1H-indol-5-yl)phenyl]propionic acid]: the inhibition at 0.4 µM in assay [2] was at least 50%. In assay [1], the “suppression” value was “suppressed footpad edema”. For the compound `COc1ccc(CCOc2ccc(CCC(=O)O)cc2-c2ccc3[nH]ccc3c2)cc1` [Compound 207, 3-{3-(1H-indol-5-yl)-4-[2-(4-methoxyphenyl)ethyloxy]phenyl}propionic acid], in assay [2], the inhibition at 0.4 µM was at least 50%. Moreover, the “suppression” value in assay [1] was “suppressed footpad edema”. The like results for `CN(C)c1ccc(CCOc2ccc(CCC(=O)O)cc2-c2ccc3[nH]ccc3c2)cc1` [Compound 215, 3-(4-{2-[4-(N,N-dimethylamino)phenyl]Ethyloxy}-3-[1H-indol-5-yl]phenyl)propionic acid] were, in that order, at least 50% and “suppressed footpad edema”. The like results for `O=C(O)CCc1ccc(OCCOc2ccccc2)c(-c2ccc3[nH]ccc3c2)c1` [Compound 222, 3-{3-(1H-indol-5-yl)-4-[2-(phenyloxy)ethyloxy]phenyl}propionic acid] were, in that order, at least 50% and “suppressed footpad edema”. As to `O=C(O)CCc1ccc(OCCOc2ccccc2Cl)c(-c2ccc3[nH]ccc3c2)c1` [Compound 224, 3-{4-[2-(2-chlorophenyloxy)ethyloxy]-3-(1H-indol-5-yl)phenyl}propionic acid], the inhibition at 0.4 µM in assay [2] is at least 50%. Also, in assay [1], the “suppression” value was “suppressed footpad edema”. For `CCCCOc1ccc(CCC(=O)O)cc1-c1ccc2nc(N)sc2c1` [Compound 291, 3-[3-(2-aminobenzothiazol-6-yl)-4-butyloxyphenyl]propionic acid] the same measures were at least 50% and “suppressed footpad edema”.

`CC(C)(C)c1ccc(COc2ccc(CCC(=O)O)cc2-c2ccc3[nH]ccc3c2)cc1` [Compound 329]: the “suppression” value in assay [1] is “suppressed footpad edema”.

For the compound `O=C(O)CCc1ccc(OCC2CCCCC2)c(-c2ccccc2)c1` [reference compound (1), 3-(2-cyclohexylmethyloxy-1,1′-biphenyl-5-yl)propionic acid, reference compound], the values for the inhibition at 0.4 µM in assay [3] and in assay [4] were -12.9% and -5.9%, respectively. The like results for `CC1(C)CCC(C)(C)c2cc(COc3ccc(C(=O)O)cc3-c3ccccc3)ccc21` [reference compound (2), [2-(5,6,7,8-tetrahydro-5,5,8,8-tetramethyl-2-naphthalenyl)methyloxy-1,1′-biphenyl-5-yl]carboxylic acid, reference compound] were, in that order, -17.6% and -15.3%. The like results for `CC1(C)CCC(C)(C)c2cc(COc3cccc(CCC(=O)O)c3-c3cccc(C(=O)O)c3)ccc21` [reference compound (3), 3-[3′-carboxy-2-(5,6,7,8-tetrahydro-5,5,8,8-tetramethyl-2naphthalenyl)methyloxy-1,1′-biphenyl-6-yl]propionic acid, reference compound] were, in that order, 2.1% and -6.3%.
